From patent US20240050370A1, “TRIPLE STABILIZER SYSTEM” (Bayer Aktiengesellschaft, priority 2022, published 2024)

Assay: Viscosity by rotational viscometry (MCR 302e, concentric cylinder)
Format: physicochemical
Conditions: 2 wt % HPC, 0.2 wt % anionic surfactant, PVPK12 0 to 16 wt %
Method: Viscosity was measured with rotational viscometry with a modular compact rheometer (MCR) 302e (Anton Paar). A concentric cylinder geometry was used. Shear rate was varied logarithmic from 0.1 1/s to 1000 1/s. 6 measurement points per decade were used. The measurement time was varied from 10 s for a shear rate of 0.1 1/s and is for 1000 1/s. Shear rate vs. Shear stress was plotted. The slope described the viscosity. The shear rate independent viscosity was evaluated, and the middle value was used.
Viscosity was measured with rotational viscometry with a modular compact rheometer (MCR) 302e (Anton Paar). A concentric cylinder geometry was used. Shear rate was varied logarithmic from 0.1 1/s to 1000 1/s. 6 measurement points per decade were used. The measurement time was varied form 10 s for a shear rate of 0.1 1/s and is for 1000 1/s.

Impact of anionic surfactant on viscosity reduction induced by PVPK12 addition (FIG. 5) | SMILES
do not show a reduction of viscosity | C[C@H](CCC(=O)[O-])[C@H]1CC[C@H]2[C@@H]3CC[C@@H]4C[C@H](O)CC[C@]4(C)[C@H]3C[C@H](O)[C@]12C.[Na+] [Na-Deoxycholate]
strongest impact | CCCCCCCCCCCCOS(=O)(=O)[O-].[Na+] [SDS, sodium dodecyl sulfate]
